Data from patent US20190144912A1, “METHODS FOR IDENTIFYING NOVEL ANTIBIOTICS AND RELATED COMPOSITIONS” (priority 2015, published 2019).

Key:
E. coli Lsp [1] = biological target: T1, E. coli Lsp (Escherichia coli, UniProt P00804, D131G/R160K); settings: resynthesized compound
Method: Next, 50 nL of stock TSRI FL library compounds were pinned into each well to a final concentration of 8.4 μM and plates were centrifuged briefly. […] Fluorescence was measured on an EnVision pate reader (ex. 355 nm; em. 495 nm).
The 344 compounds were subjected to a dose-dependent titration assay with 10-point dose-response titrations (3-fold dilutions) in triplicate. LSP primary and pre-quench titration assays employed the same reagents, protocols, and detection systems as the secondary assays. […] Globomycin was included in the both titration assays as a control. For each test compound, percent activity was plotted against compound concentration. A four parameter equation describing a sigmoidal dose-response curve was then fitted with adjustable baseline using Assay Explorer software (Symyx Technologies Inc.). The reported IC50 values were generated from fitted curves by solving for the X-intercept value at the 50% activity level of the Y-intercept value.

Lsp = Lsp (Escherichia coli, UniProt P00804); settings: cited from earlier work
E. coli Lsp [2] = biological target: T1, E. coli Lsp; assay: biochemical; design: The full length E. coli Lsp clone was generated using colony PCR of E. coli K12; His-tag (pET19b leader); made in house; host or cells: E. coli BL21(DE3)pLysS
Method: Utilizing the purified and solubilized Lsp enzyme, we developed an in vitro high-throughput functional screening for the integral membrane protease Lsp. First, screening of the Maybridge HitFinder library (Thermo Fisher) was conducted in black polystyrene 384-well low volume plates (Greiner #788076) using a BioRAPTR reagent dispenser (Beckman Coulter). Purified Lsp was diluted to 500 nM in assay buffer (PBS, 5% glycerol, 0.5% DDM pH 7.4) and 10 µL of this stock was added into each well. Next, 100 nL of a 2 mM stock of library compounds were pinned into each well and plates were centrifuged briefly. Following incubation at room temperature for 30 minutes, 2.5 μL of 250 μM Lsp FRET substrate in 25% dimethyl sulfoxide (DMSO), 75% assay buffer was added to each well. The plates were spun down and incubated for 30 minutes at room temperature. The assay was quenched with 2.5 μL of a solution containing 500 mM zinc chloride in water, giving a final concentration of 83 mM. The concentration of Lsp, FRET substrate, and library compounds during the activity assay were 400 nM, 50 μM, and 16 μM, respectively.
Catalytic signal was defined as the full enzyme activity pinning DMSO only, and background signal was measured by adding substrate to assay buffer containing no Lsp.
We tested several fixed concentrations of BBS-20 against varying concentrations of Lsp FRET substrate to determine a mechanism of inhibition (FIG. 8).

[3] = biological target: Lsp FRET peptide substrate Dabsyl-VTGC((R)-2,3-di(palmitoyloxy)-propyl)AKD(EDANS); assay: cell-based or functional assay
[4] = biological target: T2, Lsp FRET peptide substrate Dabsyl-VTGC((R)-2,3-di(palmitoyloxy)-propyl)AKD(EDANS)
T2 chain: VTGCAKD

T1 sequence (P00804 other isoform, or with tags, fused parts or gaps D131G/R160K): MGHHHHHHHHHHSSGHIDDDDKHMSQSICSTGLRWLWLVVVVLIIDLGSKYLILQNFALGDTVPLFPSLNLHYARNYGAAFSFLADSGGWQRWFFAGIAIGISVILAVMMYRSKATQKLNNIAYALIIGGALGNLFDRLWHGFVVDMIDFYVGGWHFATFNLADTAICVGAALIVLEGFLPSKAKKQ

In the case of `CCC(CC)c1nnc(NC(=O)c2cc(OC)c(OC)cc2[N+](=O)[O-])s1` [SR-01000270728-1], the EC50 (E. coli Lsp [1]) is reported as 2.2 µM.

For `CCCCCCC1OC(=O)CNC(=O)C(C(C)O)NC(=O)C(CO)NC(=O)C(C(C)CC)NC(=O)C(CC(C)C)N(C)C(=O)C1C` (stereo not shown) [globomycin], the mode of inhibition (Lsp) is listed as “noncompetitively”.

For `CCN(CC)CCc1cn(CC(=O)NC[C@]2(C)CCC[C@]3(C)c4ccc(C(C)C)cc4CC[C@@H]23)nn1` [BBS-20], the IC50 (E. coli Lsp [2]) was 15 ± 4 µM, the “identified as Lsp inhibitor in Sharpless library screen” value (E. coli Lsp [2]; 16 μM compound, 400 nM Lsp, 50 μM FRET substrate, triplicate) was “inhibitors” and the mode of inhibition (E. coli Lsp [2]; fixed concentrations of compound against varying concentrations of Lsp FRET substrate) was “noncompetitive”.

Molecule “E. coli lipoprotein signal peptidase (Lsp), full length, N-terminal His-tag fusion, DDM-solubilized and purified (from UniProt P00804 1-164) (enzyme)” has a substrate inhibition (Michaelis-Menten kinetics of peptide hydrolysis, FRET) [3] of over 100 µM.

B1: E. coli lipoprotein signal peptidase (Lsp), full length, N-terminal His-tag fusion, DDM-solubilized and purified (protein)
chain: MSQSICSTGLRWLWLVVVVLIIDLGSKYLILQNFALGDTVPLFPSLNLHYARNYGAAFSFLADSGGWQRWFFAGIAIGISVILAVMMYRSKATQKLNNIAYALIIGGALGNLFDRLWHGFVVDMIDFYVGDWHFATFNLADTAICVGAALIVLEGFLPSRAKKQ
For B1, the “KM (Michaelis-Menten kinetics of peptide hydrolysis, FRET)” value [4] was “KM=5 µM”.
